The source of these data is patent US10562903B2, “Bridged piperidine derivatives” (Hoffmann-La Roche Inc., priority 2015, dated 2020).

The EC50 is the concentration giving half of the maximal effect. A lower EC50 goes with greater potency.

The target of this experiment is γ-secretase (Homo sapiens, UniProt P49768). As to the kind of experiment: Cellular γ-secretase assay (inhibition of Aβ42 secretion, AlphaLisa). The experiment is classed as cell-based. Particulars: Human neuroglioma H4 cells overexpressing human APP695 Swedish double mutation (K595N/M596L); 24 hr compound incubation; secreted Aβ42 in supernatant. The method, then: Human neuroglioma H4 cells overexpressing human APP695 with the Swedish double mutation (K595N/M596L) were plated at 30,000 cells/well/100 μl in 96-well plates in IMDM media containing 10% FCS, 0.2 mg/l Hygromycin B and incubated at 37° C., 5% CO2.
3-4 hr post plating, compounds are a diluted in media and 50 μl is added as 1.5-fold concentrate to achieve the final concentration. Compound incubation is performed for 24 hr. Final doses typically range from 4 μM down to 0.0013 μM in half-log steps resulting in a eight point dose response curve.
Appropriate controls using vehicle only and reference compound were applied to this assay. The final concentration of Me2SO was 0.4%.
After incubation at 37° C., 5% CO2, the supernatant was subjected to quantification of secreted Aβ42 by the means of an AlphaLisa assay kit (Human Amyloid beta 1-42 Kit: Cat # AL203C, Perkin Elmer). 20 μl of the cell culture supernatant was transferred to an assay plate. Then 10 μl of a mixture of the AlphaLisa coupled capture antibody and the biotinylated detection antibody was added and incubated for 3 hours at room temperature while softly shaking the assay plate. After a further addition of 20 μl of the Donor beads the assay plate was incubated for 30 min at room temperature and constant shaking without exposure to direct light. The assay plate was then read on a Paradigm AlphaLisa Reader using the build-in program with excitation at 680 nm and emission at […].
The measured signals were then used to calculate IC50 values for inhibition of Aβ42 secretion by nonlinear regression fit analysis using XLfit 5.3 software (IDBS).
A general note: Bead proximity is the source of the signal in Alpha formats.
`Cc1nsc(N2CC3CCC(C2)C3Nc2nc3c(OC(C)C(F)(F)F)cccn3n2)n1` (single isomer, unassigned) [Example 5, N-[(8-endo)-3-(3-methyl-1,2,4-thiadiazol-5-yl)-3-azabicyclo[3.2.1]octan-8-yl]-8-[(2R or 2S)-1,1,1-trifluoropropan-2-yl]oxy-[1,2,4]triazolo[1,5-a]pyridin-2-amine] gave a half-maximal effective concentration (EC50) of 27 nM. Turning to `Cc1nsc(N2CC3CCC(C2)C3Nc2nc3c(OC(C)C(F)(F)F)cccn3n2)n1` (single isomer, unassigned) [Example 6, N-[(8 endo)-3-(3-methyl-1,2,4-thiadiazol-5-yl)-3-azabicyclo[3.2.1]octan-8-yl]-8-[(2S or 2R)-1,1,1-trifluoropropan-2-yl]oxy-[1,2,4]triazolo[1,5-a]pyridin-2-amine], the EC50 was 16 nM. Compound `Cc1cc(N2CC3CCC(C2)C3Nc2nc3c(O[C@H](C)C(F)(F)F)nccn3n2)sn1` (single isomer, unassigned) [Example 35, N-[(8 endo)-3-(3-methylisothiazol-5-yl)-3-azabicyclo[3.2.1]octan-8-yl]-8-((2R or 2S)-1,1,1-trifluoropropan-2-yl)oxy)-[1,2,4]triazolo[1,5-a]pyrazin-2-amine] showed an EC50 of 6 nM. Consider `Cc1cc(N2CC3CCC(C2)C3Nc2nc3c(O[C@@H](C)C(F)(F)F)nccn3n2)sn1` (single isomer, unassigned) [Example 36, N-[(8 endo)-3-(3-methylisothiazol-5-yl)-3-azabicyclo[3.2.1]octan-8-yl]-8-((2S or 2R)-1,1,1-trifluoropropan-2-yl)oxy)-[1,2,4]triazolo[1,5-a]pyrazin-2-amine], for which the 50% effective concentration (EC50) was determined as 6 nM. This counts as single-digit nanomolar.

On to `Cc1cc(N2C[C@H]3CC[C@@H](C2)[C@H]3Nc2nc3c(OC(C)C(F)(F)F)cccn3n2)on1` (single isomer, unassigned) [Example 43, N-[(8 endo)-3-(3-methyl-1,2-oxazol-5-yl)-3-azabicyclo[3.2.1]octan-8-yl]-8-[(2R or 2S)-1,1,1-trifluoropropan-2-yl]oxy-[1,2,4]triazolo[1,5-a]pyridin-2-amine], for which the EC50 came to 27 nM. In the case of `Cc1noc(N2CC3CCC(C2)C3Nc2nc3c(O[C@H](C)C(F)(F)F)ccc(C(F)(F)F)n3n2)n1` (single isomer, unassigned) [Example 81, N-[(8-endo)-3-(3-methyl-1,2,4-oxadiazol-5-yl)-3-azabicyclo[3.2.1]octan-8-yl]-5-(trifluoromethyl)-8-[(1R or 1S)-2,2,2-trifluoro-1-methyl-ethoxy]-[1,2,4]triazolo[1,5-a]pyridin-2-amine], the response was half-maximal at 43 nM (EC50). Compared with the last compound, the EC50 is about 1.6-fold higher. Regarding “N[(8 endo)-3-(6-methylpyrimidin-4-yl)-3-azabicyclo[3.2.1]octan-8-yl]-8-(2,2,3,3,3-pentafluoropropoxy)-[1,2,4]triazolo[1,5-a]pyridin-2-amine [Example 54]”, the concentration for a half-maximal effect (EC50) was 14 nM. Compared with the last compound, the EC50 is about 3.1-fold lower.
